{"source": "PubChem BioAssay (NCI)", "experiment_in_all_cases": "NCI anticancer screen, dose series, 48 h", "key": {"CAKI-1 renal": {"system": "CAKI-1 renal"}, "TK-10 renal": {"system": "TK-10 renal"}, "BT-549 breast": {"system": "BT-549 breast"}, "MOLT-4 leukemia": {"system": "MOLT-4 leukemia"}, "SK-MEL-28 melanoma": {"system": "SK-MEL-28 melanoma"}, "UACC-62 melanoma": {"system": "UACC-62 melanoma"}, "SF-268 CNS": {"system": "SF-268 CNS"}, "NCI-H226 lung": {"system": "NCI-H226 lung"}, "EKVX NSCLC": {"system": "EKVX NSCLC"}, "NCI/ADR-RES ovarian": {"system": "NCI/ADR-RES ovarian"}}, "note": "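Grown in 96-well plates, cells were treated for 48 hours with each compound at five concentrations. Insufficient inhibition: endpoint recorded as highest concentration tested. Here, GI50 denotes the concentration required for 50% inhibition of growth. TGI: concentration producing complete growth inhibition.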", "data": [{"molecule": "COc1cc(C2CC(c3ccc(N(C)C)cc3)=NN2C(C)=O)cc(OC)c1OC", "note": "(centres undefined)", "values": [{"measurement": "GI50", "setting": "CAKI-1 renal", "result": 0.801, "unit": "µM"}, {"measurement": "TGI", "setting": "CAKI-1 renal", "result": "> 100", "unit": "µM"}, {"measurement": "GI50", "setting": "TK-10 renal", "result": 14.3, "unit": "µM"}, {"measurement": "TGI", "setting": "TK-10 renal", "result": "> 100", "unit": "µM"}, {"measurement": "GI50", "setting": "BT-549 breast", "result": 2.53, "unit": "µM"}, {"measurement": "TGI", "setting": "BT-549 breast", "result": "> 100", "unit": "µM"}, {"measurement": "GI50", "setting": "MOLT-4 leukemia", "result": 12.8, "unit": "µM"}, {"measurement": "TGI", "setting": "MOLT-4 leukemia", "result": "> 100", "unit": "µM"}, {"measurement": "GI50", "setting": "SK-MEL-28 melanoma", "result": 21, "unit": "µM"}, {"measurement": "TGI", "setting": "SK-MEL-28 melanoma", "result": "> 100", "unit": "µM"}, {"measurement": "GI50", "setting": "UACC-62 melanoma", "result": 1.48, "unit": "µM"}, {"measurement": "TGI", "setting": "UACC-62 melanoma", "result": "> 100", "unit": "µM"}, {"measurement": "GI50", "setting": "SF-268 CNS", "result": 3.69, "unit": "µM"}, {"measurement": "TGI", "setting": "SF-268 CNS", "result": "> 100", "unit": "µM"}, {"measurement": "GI50", "setting": "NCI-H226 lung", "result": 6.46, "unit": "µM"}, {"measurement": "TGI", "setting": "NCI-H226 lung", "result": "> 100", "unit": "µM"}, {"measurement": "GI50", "setting": "EKVX NSCLC", "result": 5.53, "unit": "µM"}, {"measurement": "TGI", "setting": "EKVX NSCLC", "result": "> 100", "unit": "µM"}, {"measurement": "GI50", "setting": "NCI/ADR-RES ovarian", "result": 3.78, "unit": "µM"}, {"measurement": "TGI", "setting": "NCI/ADR-RES ovarian", "result": "> 100", "unit": "µM"}]}, {"molecule": "Cc1[nH]c2ccccc2c1CCNCc1ccc(/C=C/C(=O)NO)cc1", "values": [{"measurement": "GI50", "setting": "CAKI-1 renal", "result": 0.0193, "unit": "µM"}, {"measurement": "TGI", "setting": "CAKI-1 renal", "result": 0.0524, "unit": "µM"}, {"measurement": "GI50", "setting": "TK-10 renal", "result": "< 0.0111", "unit": "µM"}, {"measurement": "TGI", "setting": "TK-10 renal", "result": 0.0453, "unit": "µM"}, {"measurement": "GI50", "setting": "BT-549 breast", "result": 0.213, "unit": "µM"}, {"measurement": "TGI", "setting": "BT-549 breast", "result": 12.3, "unit": "µM"}, {"measurement": "GI50", "setting": "MOLT-4 leukemia", "result": "< 0.01", "unit": "µM"}, {"measurement": "GI50", "setting": "SK-MEL-28 melanoma", "result": "< 0.0115", "unit": "µM"}, {"measurement": "TGI", "setting": "SK-MEL-28 melanoma", "result": 0.0728, "unit": "µM"}, {"measurement": "GI50", "setting": "UACC-62 melanoma", "result": "< 0.01", "unit": "µM"}, {"measurement": "TGI", "setting": "UACC-62 melanoma", "result": 0.0229, "unit": "µM"}, {"measurement": "GI50", "setting": "SF-268 CNS", "result": 0.0157, "unit": "µM"}, {"measurement": "TGI", "setting": "SF-268 CNS", "result": 0.0605, "unit": "µM"}, {"measurement": "GI50", "setting": "NCI-H226 lung", "result": 0.0305, "unit": "µM"}, {"measurement": "TGI", "setting": "NCI-H226 lung", "result": 0.172, "unit": "µM"}, {"measurement": "GI50", "setting": "EKVX NSCLC", "result": 0.023, "unit": "µM"}, {"measurement": "TGI", "setting": "EKVX NSCLC", "result": 1.5, "unit": "µM"}, {"measurement": "GI50", "setting": "NCI/ADR-RES ovarian", "result": 0.0211, "unit": "µM"}, {"measurement": "TGI", "setting": "NCI/ADR-RES ovarian", "result": 0.267, "unit": "µM"}]}, {"molecule": "O=C(N/N=C/c1cc([N+](=O)[O-])ccc1O)c1cccc2ccccc12", "values": [{"measurement": "GI50", "setting": "CAKI-1 renal", "result": 1.31, "unit": "µM"}, {"measurement": "TGI", "setting": "CAKI-1 renal", "result": 4.67, "unit": "µM"}, {"measurement": "GI50", "setting": "TK-10 renal", "result": 4.4, "unit": "µM"}, {"measurement": "TGI", "setting": "TK-10 renal", "result": 72.9, "unit": "µM"}, {"measurement": "GI50", "setting": "BT-549 breast", "result": 1.63, "unit": "µM"}, {"measurement": "TGI", "setting": "BT-549 breast", "result": 23.7, "unit": "µM"}, {"measurement": "GI50", "setting": "MOLT-4 leukemia", "result": 2.41, "unit": "µM"}, {"measurement": "TGI", "setting": "MOLT-4 leukemia", "result": 21.7, "unit": "µM"}, {"measurement": "GI50", "setting": "SK-MEL-28 melanoma", "result": 3.11, "unit": "µM"}, {"measurement": "TGI", "setting": "SK-MEL-28 melanoma", "result": 80.8, "unit": "µM"}, {"measurement": "GI50", "setting": "UACC-62 melanoma", "result": 2.98, "unit": "µM"}, {"measurement": "TGI", "setting": "UACC-62 melanoma", "result": 26.4, "unit": "µM"}, {"measurement": "GI50", "setting": "SF-268 CNS", "result": 4.12, "unit": "µM"}, {"measurement": "TGI", "setting": "SF-268 CNS", "result": "> 100", "unit": "µM"}, {"measurement": "GI50", "setting": "NCI-H226 lung", "result": 2.45, "unit": "µM"}, {"measurement": "TGI", "setting": "NCI-H226 lung", "result": 11.5, "unit": "µM"}, {"measurement": "GI50", "setting": "EKVX NSCLC", "result": 3.8, "unit": "µM"}, {"measurement": "TGI", "setting": "EKVX NSCLC", "result": 29.7, "unit": "µM"}, {"measurement": "GI50", "setting": "NCI/ADR-RES ovarian", "result": 2.32, "unit": "µM"}, {"measurement": "TGI", "setting": "NCI/ADR-RES ovarian", "result": 51.6, "unit": "µM"}]}, {"molecule": "Cn1ccnc1C(=O)/C=C/c1ccc(CC(=O)Nc2ccc(C(F)(F)F)cc2)cc1", "values": [{"measurement": "GI50", "setting": "CAKI-1 renal", "result": 3.54, "unit": "µM"}, {"measurement": "TGI", "setting": "CAKI-1 renal", "result": 9.53, "unit": "µM"}, {"measurement": "GI50", "setting": "TK-10 renal", "result": 5, "unit": "µM"}, {"measurement": "TGI", "setting": "TK-10 renal", "result": 15.3, "unit": "µM"}, {"measurement": "GI50", "setting": "BT-549 breast", "result": 2.56, "unit": "µM"}, {"measurement": "TGI", "setting": "BT-549 breast", "result": 5.33, "unit": "µM"}, {"measurement": "GI50", "setting": "MOLT-4 leukemia", "result": 1.17, "unit": "µM"}, {"measurement": "TGI", "setting": "MOLT-4 leukemia", "result": 8.06, "unit": "µM"}, {"measurement": "GI50", "setting": "SK-MEL-28 melanoma", "result": 2.92, "unit": "µM"}, {"measurement": "TGI", "setting": "SK-MEL-28 melanoma", "result": 6.25, "unit": "µM"}, {"measurement": "GI50", "setting": "UACC-62 melanoma", "result": 3.16, "unit": "µM"}, {"measurement": "TGI", "setting": "UACC-62 melanoma", "result": 7.65, "unit": "µM"}, {"measurement": "GI50", "setting": "SF-268 CNS", "result": 3.03, "unit": "µM"}, {"measurement": "TGI", "setting": "SF-268 CNS", "result": 7.88, "unit": "µM"}, {"measurement": "GI50", "setting": "NCI-H226 lung", "result": 4.19, "unit": "µM"}, {"measurement": "TGI", "setting": "NCI-H226 lung", "result": 16, "unit": "µM"}, {"measurement": "GI50", "setting": "EKVX NSCLC", "result": 3.07, "unit": "µM"}, {"measurement": "TGI", "setting": "EKVX NSCLC", "result": 8.49, "unit": "µM"}, {"measurement": "GI50", "setting": "NCI/ADR-RES ovarian", "result": 4.32, "unit": "µM"}, {"measurement": "TGI", "setting": "NCI/ADR-RES ovarian", "result": 10.9, "unit": "µM"}]}, {"molecule": "CSc1ccccc1C#Cc1ccccc1C#CCCCCO", "values": [{"measurement": "GI50", "setting": "CAKI-1 renal", "result": 7.13, "unit": "µM"}, {"measurement": "TGI", "setting": "CAKI-1 renal", "result": 20.5, "unit": "µM"}, {"measurement": "GI50", "setting": "TK-10 renal", "result": 13.7, "unit": "µM"}, {"measurement": "TGI", "setting": "TK-10 renal", "result": 30.4, "unit": "µM"}, {"measurement": "GI50", "setting": "BT-549 breast", "result": 13.3, "unit": "µM"}, {"measurement": "TGI", "setting": "BT-549 breast", "result": 26.6, "unit": "µM"}, {"measurement": "GI50", "setting": "MOLT-4 leukemia", "result": 7.32, "unit": "µM"}, {"measurement": "TGI", "setting": "MOLT-4 leukemia", "result": 29.3, "unit": "µM"}, {"measurement": "GI50", "setting": "SK-MEL-28 melanoma", "result": 15.1, "unit": "µM"}, {"measurement": "TGI", "setting": "SK-MEL-28 melanoma", "result": 31.2, "unit": "µM"}, {"measurement": "GI50", "setting": "UACC-62 melanoma", "result": 13, "unit": "µM"}, {"measurement": "TGI", "setting": "UACC-62 melanoma", "result": 25.7, "unit": "µM"}, {"measurement": "GI50", "setting": "SF-268 CNS", "result": 13.7, "unit": "µM"}, {"measurement": "TGI", "setting": "SF-268 CNS", "result": 28.4, "unit": "µM"}, {"measurement": "GI50", "setting": "NCI-H226 lung", "result": 19, "unit": "µM"}, {"measurement": "TGI", "setting": "NCI-H226 lung", "result": 43.6, "unit": "µM"}, {"measurement": "GI50", "setting": "EKVX NSCLC", "result": 16.9, "unit": "µM"}, {"measurement": "TGI", "setting": "EKVX NSCLC", "result": 34.4, "unit": "µM"}, {"measurement": "GI50", "setting": "NCI/ADR-RES ovarian", "result": 11.5, "unit": "µM"}, {"measurement": "TGI", "setting": "NCI/ADR-RES ovarian", "result": 31.1, "unit": "µM"}]}]}
